Measured values: patent publication US12528773B2, “Non-lysosomal glucosylceramidase inhibitors and uses thereof” (ALECTOS THERAPEUTICS INC., priority 2020, dated 2026)
Read-outs that look alike come from different tables or passages of the source.

Columns and labels:
[1] = test system: rat intestinal alpha-glucosidases; test: Inhibition of rat intestinal alpha-glucosidases (rat intestinal lysate, glucose detection); assay type: biochemical; settings: compound concentration 25 μM, sucrose as substrate
Method: Assay for Determination of Inhibition of Rat Intestinal Alpha-Glucosidases
Various concentrations of test compounds were prepared in DMSO and then diluted into buffer consisting of 100 mM citric acid, 200 mM disodium phosphate, pH 6.0. Rat intestinal acetone powder (Sigma) was dissolved to 12.5 mg/mL in assay buffer and sonicated in an ice bath, centrifuged, and the supernatant was collected, aliquoted and stored at −20° C. until use. On the day of the assay, the rat intestinal lysate was diluted to 6.25 mg/mL (sucrose reactions) and 2.1 mg/ml (maltose reactions) in assay buffer. The final reaction solutions for sucrose contained 2.1 mg/mL rat intestinal lysate, 40 mM sucrose, 50 or 25 μM of test compound, and 3.3% DMSO. The final reaction solution for maltose contained 0.69 mg/mL rat intestinal lysate, 10 mM maltose, 50 or 25 μM of test compound, and 3.3% DMSO. The reaction was initiated by the addition of substrate (sucrose or maltose) and allowed to proceed at 37° C. for 20 min to assess rat intestinal alpha-glycosidase activities. The reaction was stopped by addition of 20 μL of 2 M Tris-HCl, pH 7.0. The glucose produced during the reaction was detected using a commercial Amplex Red glucose detection kit from Thermo Fisher. For a full plate, the Amplex Red detection mixture was prepared by mixing 35 μL glucose oxidase, 35 μL horseradish peroxidase and 35 μL Amplex Red into 3395 μL 1× Amplex Red detection buffer. A total of 30 μL of detection mixture was added to each well. Fluorescence was measured in kinetic mode on a Biotek Synergy H4 plate reader at a wavelength of 573 nm for excitation and 610 nm for emission for 15 min and quantified from the data at 10 min. Incubations without added rat intestinal lysate were used to correct for the background amount of glucose present in the samples. Incubations without added test compound were used to define maximal enzyme activity. Percent inhibition of rat intestinal alpha-glucosidases was determined by dividing the amount of glucose detected in the presence of test compound by the amount of glucose detected in the maximal enzyme activity wells. All conditions were analyzed in triplicate. […] The final reaction solutions were the same as described above for the Amplex Red Detection kit. After a 20 min reaction time at 37° C., 100 μL of hexokinase glucose reagent was added to all test wells except for the no enzyme added control wells and no test compound added wells. The plate was incubated for a further 15 min at room temperature and the absorbance was read at 340 nm on a Biotek Synergy H4 plate reader. The percent inhibition of rat intestinal alpha-glucosidases was determined in a similar manner as described above.

GBA2 = GBA2 (Homo sapiens (Human), UniProt Q9HCG7); test: Inhibition of GBA2 in cell lysate (4-methylumbelliferone glucopyranoside substrate); assay type: biochemical;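 also: homogenate of stably transfected HEK293T cells pre-treated with a GCase inhibitor, test compound preincubated 5 min at 37 °C, substrate reaction 20 min at 37 °C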
GBA2, sequence (Q9HCG7 whole entry): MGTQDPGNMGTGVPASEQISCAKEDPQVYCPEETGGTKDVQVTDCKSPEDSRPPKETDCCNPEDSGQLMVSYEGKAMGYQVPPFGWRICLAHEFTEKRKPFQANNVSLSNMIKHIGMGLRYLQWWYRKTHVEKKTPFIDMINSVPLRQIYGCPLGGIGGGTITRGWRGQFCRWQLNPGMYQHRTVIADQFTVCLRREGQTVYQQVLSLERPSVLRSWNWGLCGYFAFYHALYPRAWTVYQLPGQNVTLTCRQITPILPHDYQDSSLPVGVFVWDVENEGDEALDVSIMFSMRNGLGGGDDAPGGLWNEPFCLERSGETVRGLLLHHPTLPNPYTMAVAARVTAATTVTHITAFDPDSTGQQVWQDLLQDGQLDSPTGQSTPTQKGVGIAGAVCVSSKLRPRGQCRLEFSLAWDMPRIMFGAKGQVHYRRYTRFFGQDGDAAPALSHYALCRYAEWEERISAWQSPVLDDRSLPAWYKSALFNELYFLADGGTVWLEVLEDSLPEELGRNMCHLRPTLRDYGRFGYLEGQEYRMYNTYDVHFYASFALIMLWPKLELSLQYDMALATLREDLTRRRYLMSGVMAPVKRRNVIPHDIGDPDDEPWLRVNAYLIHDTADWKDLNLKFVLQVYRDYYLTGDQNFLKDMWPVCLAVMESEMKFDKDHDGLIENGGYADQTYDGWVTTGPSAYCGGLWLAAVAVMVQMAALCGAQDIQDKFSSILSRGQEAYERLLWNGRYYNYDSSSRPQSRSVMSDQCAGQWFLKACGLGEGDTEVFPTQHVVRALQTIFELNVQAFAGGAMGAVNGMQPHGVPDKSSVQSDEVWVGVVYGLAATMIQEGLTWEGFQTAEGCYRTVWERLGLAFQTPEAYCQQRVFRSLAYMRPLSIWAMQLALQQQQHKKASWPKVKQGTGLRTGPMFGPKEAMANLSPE

[2] = HEK293T-overexpressing GBA2 cellular homogenate, pH 5.5, read-out: GBA2 IC50

O[C@H]1[C@H](O)CN(C[C@@H]2CCCN(c3ccc(C(F)(F)F)cn3)C2)C[C@@H]1O [Example 177, (3S,4S,5R)-1-(((S)-1-(5-(trifluoromethyl)pyridin-2-yl)piperidin-3-yl)methyl)piperidine-3,4,5-triol]
rat α-glu. (% inhib.) [1]: 7% | IC50 (GBA2; [2]): 1000 to 25000 nM

O[C@H]1[C@H](O)CN(CCc2ccc(Cl)c(Cl)c2)C[C@@H]1O [Example 8, (3S,4r,5R)-1-(3,4-dichlorophenethyl)piperidine-3,4,5-triol]
rat α-glu. (% inhib.) [1]: 0% | IC50 (GBA2; [2]): < 100 nM

CCCCOc1cc(F)c(CN2C[C@@H](O)[C@H](O)[C@@H](O)C2)c(F)c1 [Example 199, (3S,4r,5R)-1-(4-butoxy-2,6-difluorobenzyl)piperidine-3,4,5-triol]
rat α-glu. (% inhib.) [1]: 5% | IC50 (GBA2; [2]): 1000 to 25000 nM

O[C@H]1[C@H](O)CN(CC2(F)CCN(c3cccc(C(F)(F)F)n3)CC2)C[C@@H]1O [Example 195, (3S,4r,5R)-1-((4-fluoro-1-(6-(trifluoromethyl)pyridin-2-yl)piperidin-4-yl)methyl)piperidine-3,4,5-triol]
rat α-glu. (% inhib.) [1]: 5% | IC50 (GBA2; [2]): 100 to 1000 nM

O[C@H]1[C@H](O)CN(C[C@H]2CCN(c3ncccc3C(F)(F)F)C2)C[C@@H]1O [Example 19, (3S,4R,5R)-1-(((R)-1-(3-(trifluoromethyl)pyridin-2-yl)pyrrolidin-3-yl)methyl)piperidine-3,4,5-triol]
rat α-glu. (% inhib.) [1]: 6% | IC50 (GBA2; [2]): < 100 nM

O[C@H]1[C@H](O)CN(CC2(F)CCN(c3nc4ccccc4s3)CC2)C[C@@H]1O [Example 196, (3S,4r,5R)-1-((1-(benzo[d]thiazol-2-yl)-4-fluoropiperidin-4-yl)methyl)piperidine-3,4,5-triol]
rat α-glu. (% inhib.) [1]: 10% | IC50 (GBA2; [2]): 100 to 1000 nM

O[C@H]1[C@H](O)CN(Cc2ccc(Oc3ccccc3)cc2)C[C@@H]1O [Example 201, (3S,4r,5R)-1-(4-phenoxybenzyl)piperidine-3,4,5-triol]
rat α-glu. (% inhib.) [1]: 3% | IC50 (GBA2; [2]): < 100 nM

O[C@H]1[C@H](O)CN(CC2CCN(c3ccccc3)CC2)C[C@@H]1O [Example 106, (3S,4r,5R)-1-((1-phenylpiperidin-4-yl)methyl)piperidine-3,4,5-triol]
rat α-glu. (% inhib.) [1]: 9% | IC50 (GBA2; [2]): < 100 nM

O[C@H]1[C@H](O)CN(C[C@@H]2CCN(c3cccc4scnc34)C2)C[C@@H]1O [Example 28, (3S,4S,5R)-1-(((S)-1-(benzo[d]thiazol-4-yl)pyrrolidin-3-yl)methyl)piperidine-3,4,5-triol]
rat α-glu. (% inhib.) [1]: 11% | IC50 (GBA2; [2]): < 100 nM

CC(F)(F)[C@H]1CC[C@@H](CN2C[C@@H](O)[C@H](O)[C@@H](O)C2)CC1 [Example 187, (3S,4R,5R)-1-(((1s,4S)-4-(1,1-difluoroethyl)cyclohexyl)methyl)piperidine-3,4,5-triol]
rat α-glu. (% inhib.) [1]: 0% | IC50 (GBA2; [2]): < 100 nM

CCCCCOc1ccc(CN2C[C@@H](O)[C@H](O)[C@@H](O)C2)cc1 [Example 198, (3S,4r,5R)-1-(4-(pentyloxy)benzyl)piperidine-3,4,5-triol]
rat α-glu. (% inhib.) [1]: 12% | IC50 (GBA2; [2]): < 100 nM

O[C@H]1[C@H](O)CN(C[C@H]2CCN(c3cccc(C(F)(F)F)n3)C2)C[C@@H]1O [Example 142, (3S,4R,5R)-1-(((R)-1-(6-(trifluoromethyl)pyridin-2-yl)pyrrolidin-3-yl)methyl)piperidine-3,4,5-triol]
rat α-glu. (% inhib.) [1]: 0% | IC50 (GBA2; [2]): < 100 nM

CC(C)c1cnc(N2CCC[C@H](CN3C[C@@H](O)[C@H](O)[C@@H](O)C3)C2)s1 [Example 32, (3S,4R,5R)-1-(((R)-1-(5-isopropylthiazol-2-yl)piperidin-3-yl)methyl)piperidine-3,4,5-triol]
rat α-glu. (% inhib.) [1]: 2% | IC50 (GBA2; [2]): < 100 nM

O[C@H]1[C@H](O)CN(C[C@H]2CCCN(c3cncc(C(F)(F)F)c3)C2)C[C@@H]1O [Example 168, (3S,4R,5R)-1-(((R)-1-(5-(trifluoromethyl)pyridin-3-yl)piperidin-3-yl)methyl)piperidine-3,4,5-triol]
rat α-glu. (% inhib.) [1]: 7% | IC50 (GBA2; [2]): < 100 nM

CC(F)(F)[C@H]1CC[C@H](CN2C[C@@H](O)[C@H](O)[C@@H](O)C2)CC1 [Example 188, (3S,4R,5R)-1-(((1r,4R)-4-(1,1-difluoroethyl)cyclohexyl)methyl)piperidine-3,4,5-triol]
rat α-glu. (% inhib.) [1]: 10% | IC50 (GBA2; [2]): < 100 nM

O[C@H]1[C@H](O)CN(C[C@H]2CCN(c3ccc(C(F)(F)F)nc3)C2)C[C@@H]1O [Example 149, (3S,4R,5R)-1-(((R)-1-(6-(trifluoromethyl)pyridin-3-yl)pyrrolidin-3-yl)methyl)piperidine-3,4,5-triol]
rat α-glu. (% inhib.) [1]: 0% | IC50 (GBA2; [2]): < 100 nM

CC(Cc1cccc(Cl)c1F)N1C[C@@H](O)[C@H](O)[C@@H](O)C1 (stereo partly drawn) [Example 16, (3S,4r,5R)-1-(1-(3-chloro-2-fluorophenyl)propan-2-yl)piperidine-3,4,5-triol]
rat α-glu. (% inhib.) [1]: 7% | IC50 (GBA2): 100 to 1000 nM

O[C@H]1[C@H](O)CN(C[C@H]2CCCN(c3cnccc3C(F)(F)F)C2)C[C@@H]1O [Example 167, (3S,4R,5R)-1-(((R)-1-(4-(trifluoromethyl)pyridin-3-yl)piperidin-3-yl)methyl)piperidine-3,4,5-triol]
rat α-glu. (% inhib.) [1]: 4% | IC50 (GBA2; [2]): < 100 nM

O[C@H]1[C@H](O)CN(C[C@@H]2CCCN(c3ccncc3C(F)(F)F)C2)C[C@@H]1O [Example 179, (3S,4S,5R)-1-(((S)-1-(3-(trifluoromethyl)pyridin-4-yl)piperidin-3-yl)methyl)piperidine-3,4,5-triol]
rat α-glu. (% inhib.) [1]: 6% | IC50 (GBA2; [2]): 100 to 1000 nM

O[C@H]1[C@H](O)CN(CC2(F)CCN(c3ncccc3C(F)(F)F)CC2)C[C@@H]1O [Example 194, (3S,4r,5R)-1-((4-fluoro-1-(3-(trifluoromethyl)pyridin-2-yl)piperidin-4-yl)methyl)piperidine-3,4,5-triol]
rat α-glu. (% inhib.) [1]: 4% | IC50 (GBA2; [2]): < 100 nM

O[C@H]1[C@H](O)CN(Cc2ccc(-c3ccccc3)cc2)C[C@@H]1O [Example 202, (3S,4r,5R)-1-([1,1′-biphenyl]-4-ylmethyl)piperidine-3,4,5-triol]
rat α-glu. (% inhib.) [1]: 11% | IC50 (GBA2; [2]): < 100 nM

O[C@H]1[C@H](O)CN(C[C@H]2CCCN(c3cc(C(F)(F)F)ccn3)C2)C[C@@H]1O [Example 169, (3S,4R,5R)-1-(((R)-1-(4-(trifluoromethyl)pyridin-2-yl)piperidin-3-yl)methyl)piperidine-3,4,5-triol]
rat α-glu. (% inhib.) [1]: 13% | IC50 (GBA2; [2]): < 100 nM

O[C@H]1[C@H](O)CN(C[C@@H]2CCCN(c3cccnc3C(F)(F)F)C2)C[C@@H]1O [Example 174, (3S,4S,5R)-1-(((S)-1-(2-(trifluoromethyl)pyridin-3-yl)piperidin-3-yl)methyl)piperidine-3,4,5-triol]
rat α-glu. (% inhib.) [1]: 3% | IC50 (GBA2; [2]): < 100 nM

O[C@H]1[C@H](O)CN(CC2(F)CCN(c3ccccc3C(F)(F)F)CC2)C[C@@H]1O [Example 193, (3S,4r,5R)-1-((4-fluoro-1-(2-(trifluoromethyl)phenyl)piperidin-4-yl)methyl)piperidine-3,4,5-triol]
rat α-glu. (% inhib.) [1]: 2% | IC50 (GBA2; [2]): < 100 nM

O[C@H]1[C@H](O)CN(CCc2cccc(Cl)c2F)C[C@@H]1O [Example 6, (3S,4r,5R)-1-(3-chloro-2-fluorophenethyl)piperidine-3,4,5-triol]
rat α-glu. (% inhib.) [1]: 3% | IC50 (GBA2; [2]): < 100 nM

O[C@H]1[C@H](O)CN(CCCC2CCCCC2)C[C@@H]1O [Example 5, (3S,4r,5R)-1-(3-cyclohexylpropyl)piperidine-3,4,5-triol]
rat α-glu. (% inhib.) [1]: 10% | IC50 (GBA2; [2]): < 100 nM

O[C@H]1[C@H](O)CN(CC2Cc3c(F)ccc(F)c3C2)C[C@@H]1O [Example 190, (3S,4r,5R)-1-((4,7-difluoro-2,3-dihydro-1H-inden-2-yl)methyl)piperidine-3,4,5-triol]
rat α-glu. (% inhib.) [1]: 4% | IC50 (GBA2; [2]): < 100 nM

O[C@H]1[C@H](O)CN(C[C@@H]2CCN(c3ccc(C(F)(F)F)nc3)C2)C[C@@H]1O [Example 162, (3S,4S,5R)-1-(((S)-1-(6-(trifluoromethyl)pyridin-3-yl)pyrrolidin-3-yl)methyl)piperidine-3,4,5-triol]
rat α-glu. (% inhib.) [1]: 0% | IC50 (GBA2; [2]): < 100 nM

O[C@H]1[C@H](O)CN(C[C@H]2CCN(c3nc4ccccc4o3)C2)C[C@@H]1O [Example 22, (3S,4R,5R)-1-(((R)-1-(benzo[d]oxazol-2-yl)pyrrolidin-3-yl)methyl)piperidine-3,4,5-triol]
rat α-glu. (% inhib.) [1]: 4% | IC50 (GBA2; [2]): < 100 nM
